In assay [1] the target is T1, RAMP1-CLR (CGRP receptor) (Homo sapiens, UniProt O60894+Q16602).
T1 construct: FLAG; expressed in transfected cells; host or cells: HEK-293 or HEK-293S cells, transient transfection, 1:1 RAMP:CLR
In words: S. cerevisiae growth assay, GPA1/Gαi chimera, RAMP1 + CLR. Conditions: percentage of yeast strain MMY11 (lacking GPA1); 20 h; mean ± S.E., n = 6. The class given is cell-based. Here is the method: FIGURE 3. […] Reporter gene activity was determined following 20 h of stimulation.
General yeast procedures were performed as described previously ([22], [24]). The human CLR was introduced into yeast cells under the control of the PGK promoter using a plasmid containing ura3 (pDT-PGK). The three human RAMPs were introduced into yeast under the control of the GAPDH promoter using plasmids containing leu2 (p425-GPD) ([25]). S. cerevisiae dual reporter strains expressing chimeras of yeast GPA1(1–467) (GPA1/Gα) with the five C-terminal amino acids of […] human G proteins representing Gαs, Gα16, Gαq, Gαo, Gαi1/2, Gαi3, Gαz, Gα12, Gα13, and Gα14 (MMY84–MMY93) were used in this study ([52]). […] Receptor signaling was measured using the yeast growth assay as described previously ([24]). […] A fluorescein signal was detected as an increase in fluorescence (excitation wavelength = 485 nm, emission wavelength = 535 nm) as a measure of growth. Different concentrations of ligand (0.01 nM–100 μM) were assayed using 96-well plates, and fluorescence was detected using a Tecan Infinite M200 microplate reader (Tecan Ultra Evolution, Reading, UK) or a Mithras LB 940 microplate reader (Berthold Technologies, Harpenden, UK) for 20 h. […]

The target in a further assay is T2, RAMP3-CLR (AM2 receptor) (Homo sapiens, UniProt O60896+Q16602).
T2 construct: FLAG; expressed in transfected cells; host or cells: HEK-293 or HEK-293S cells, transient transfection, 1:1 RAMP:CLR
T2 sequence (Q16602 23-461): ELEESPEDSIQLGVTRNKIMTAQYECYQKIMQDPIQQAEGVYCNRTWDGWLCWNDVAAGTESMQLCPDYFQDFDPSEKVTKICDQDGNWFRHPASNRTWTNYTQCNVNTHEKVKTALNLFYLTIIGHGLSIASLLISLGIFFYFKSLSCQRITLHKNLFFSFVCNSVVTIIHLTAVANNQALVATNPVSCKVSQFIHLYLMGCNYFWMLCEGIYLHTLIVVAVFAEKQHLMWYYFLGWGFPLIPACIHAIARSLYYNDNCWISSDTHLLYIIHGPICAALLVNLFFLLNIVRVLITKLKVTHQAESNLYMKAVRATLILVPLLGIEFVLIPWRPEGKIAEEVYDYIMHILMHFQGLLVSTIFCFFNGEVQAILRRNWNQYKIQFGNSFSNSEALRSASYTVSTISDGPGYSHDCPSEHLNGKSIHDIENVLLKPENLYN
T2 sequence (O60896 24-148): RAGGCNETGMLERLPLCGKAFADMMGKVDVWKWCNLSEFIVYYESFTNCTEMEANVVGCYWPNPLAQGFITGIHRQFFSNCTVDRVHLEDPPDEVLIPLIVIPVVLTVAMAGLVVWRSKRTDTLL
In words: (Ca^2+)i mobilization, HEK-293S cells, RAMP3 + CLR. The assay is classed as cell-based. Particulars: HEK293S, percentage of maximal (Ca^2+)i release with 10 μM ionomycin, mean ± S.E., n = 5. Here is the method: HEK-293 cells, provided by Dr. Jügen Müller (University of Aston), were cultured in DMEM supplemented with 10% heat-inactivated FBS and kept at 37 °C in a humidified 95% air, 5% CO2 incubator. HEK-293S cells (a gift from AstraZeneca) were cultured in DMEM supplemented with 8% heat-inactivated FBS and kept at 37 °C in a humidified 95% air, 5% CO2 incubator. HEK-293 cells were transfected with FuGENE 6 (Roche Applied Science) in accordance with the manufacturer's instructions using a 1:3 (w:v) DNA:FuGENE ratio and a 1:1 ratio of RAMP to CLR. HEK-293S cells were seeded into 96-well poly-D-lysine-coated plates at a density of 15,000 cells/well (determined using a Countess^TM cell counter, Invitrogen) 1 day prior to transfection. HEK-293S cells were transiently transfected as described previously ([38]) using a 1:1 ratio of RAMP to CLR. The transfected cell lines were grown for 24–48 h prior to assaying.
Transfected HEK-293 cells were grown to confluence in black, clear bottomed, 96-well plates. […] Ligands were added robotically using a Mithras LB 940 multimode microplate reader in the range of 10 pM to 1 μM, and fluorescence was determined immediately post-injection with an excitation wavelength set to 485 nm and an emission wavelength set to 535 nm. […] Peak magnitude was calculated using five-point smoothing followed by correction against background fluorescence. […]

T1 sequence (Q16602 23-461): as the sequence (Q16602 23-461) above
T1 sequence (O60894 27-148): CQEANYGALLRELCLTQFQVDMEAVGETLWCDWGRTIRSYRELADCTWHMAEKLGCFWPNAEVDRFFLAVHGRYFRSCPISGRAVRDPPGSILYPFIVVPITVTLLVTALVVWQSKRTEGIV

Turning to `CSCC[C@H](NC(=O)[C@H](CC(C)C)NC(=O)[C@H](CCC(N)=O)NC(=O)[C@H](Cc1c[nH]c2ccccc12)NC(=O)[C@H](CC(C)C)NC(=O)[C@H](CCCNC(=N)N)NC(=O)[C@H](Cc1c[nH]cn1)NC(=O)[C@H](CO)NC(=O)[C@H](CC(C)C)NC(=O)[C@H](CC(N)=O)NC(=O)[C@H](CCC(N)=O)NC(=O)[C@@H](NC(=O)[C@H](CCC(N)=O)NC(=O)[C@@H]1CSSC[C@H](NC(=O)CNC(=O)[C@@H](NC(=O)[C@H](CCCNC(=N)N)NC(=O)[C@H](CC(C)C)NC(=O)[C@H](CC(C)C)NC(=O)[C@H](CCC(N)=O)NC(=O)[C@H](C)NC(=O)[C@H](CCC(N)=O)NC(=O)[C@@H](N)[C@@H](C)O)C(C)C)C(=O)N[C@@H](C(C)C)C(=O)N[C@@H](CC(C)C)C(=O)NCC(=O)N[C@@H]([C@@H](C)O)C(=O)N1)C(C)C)C(=O)NCC(=O)N1CCC[C@H]1C(=O)N[C@@H](C)C(=O)NCC(=O)N[C@@H](CCCNC(=N)N)C(=O)N[C@@H](CCC(N)=O)C(=O)N[C@@H](CC(=O)O)C(=O)N[C@@H](CO)C(=O)N[C@@H](C)C(=O)N1CCC[C@H]1C(=O)N[C@H](C(=O)N[C@@H](CC(=O)O)C(=O)N1CCC[C@H]1C(=O)N[C@@H](CO)C(=O)N[C@@H](CO)C(=O)N1CCC[C@H]1C(=O)N[C@@H](Cc1c[nH]cn1)C(=O)N[C@@H](CO)C(=O)N[C@@H](Cc1ccc(O)cc1)C(N)=O)C(C)C` [AM2, adrenomedullin 2], the Emax in assay [1] was determined as 41.5 ± 3.3%; on RAMP3-CLR (AM2 receptor), 20.1 ± 4.3%.
For `CC[C@H](C)[C@H](NC(=O)[C@H](CCC(N)=O)NC(=O)[C@H](Cc1c[nH]cn1)NC(=O)[C@H](C)NC(=O)[C@H](CC(C)C)NC(=O)[C@H](CCCCN)NC(=O)[C@H](CCC(N)=O)NC(=O)[C@@H](NC(=O)[C@@H](NC(=O)[C@@H]1CSSC[C@H](NC(=O)CNC(=O)[C@H](Cc2ccccc2)NC(=O)[C@H](CO)NC(=O)[C@H](CCCNC(=N)N)NC(=O)[C@H](CC(C)C)NC(=O)CNC(=O)[C@H](CCC(N)=O)NC(=O)[C@H](Cc2ccccc2)NC(=O)[C@H](CC(N)=O)NC(=O)[C@H](CC(N)=O)NC(=O)[C@H](CCSC)NC(=O)[C@H](CO)NC(=O)[C@H](CCC(N)=O)NC(=O)[C@H](CCCNC(=N)N)NC(=O)[C@@H](N)Cc2ccc(O)cc2)C(=O)N[C@@H](CCCNC(=N)N)C(=O)N[C@@H](Cc2ccccc2)C(=O)NCC(=O)N[C@@H]([C@@H](C)O)C(=O)N1)[C@@H](C)O)C(C)C)C(=O)N[C@@H](Cc1ccc(O)cc1)C(=O)N[C@@H](CCC(N)=O)C(=O)N[C@@H](Cc1ccccc1)C(=O)N[C@H](C(=O)N[C@@H](CC(=O)O)C(=O)N[C@@H](CCCCN)C(=O)N[C@@H](CC(=O)O)C(=O)N[C@@H](CCCCN)C(=O)N[C@@H](CC(=O)O)C(=O)N[C@@H](CC(N)=O)C(=O)N[C@H](C(=O)N[C@@H](C)C(=O)N1CCC[C@H]1C(=O)N[C@@H](CCCNC(=N)N)C(=O)N[C@@H](CO)C(=O)N[C@@H](CCCCN)C(=O)N[C@H](C(=O)N[C@@H](CO)C(=O)N1CCC[C@H]1C(=O)N[C@@H](CCC(N)=O)C(=O)NCC(=O)N[C@@H](Cc1ccc(O)cc1)C(N)=O)[C@@H](C)CC)C(C)C)[C@@H](C)O` [AM, adrenomedullin], the values for the Emax (in assay [1]; at RAMP3-CLR (AM2 receptor)) were 34.2 ± 3.7% and 44.3 ± 3.2%, respectively.

For the origin of these results see article PMC5063977 (The Journal of Biological Chemistry, 2016).
